Experimental data taken from patent US20190117653A1, “SYSTEMS AND METHODS FOR TREATING BACTERIAL INFECTION” (priority 2016, published 2019).
Values after ≈ are worked out from the molar mass of the structure shown. Where a name gives a salt, the structure may show the parent alone. Read-outs that look alike come from different tables or passages of the source.

Columns and labels:
E. faecalis ATCC 33186 = test: MIC with/without bovine pulmonary surfactant; format: cell-based; details: Enterococcus faecalis, ATCC33186, 2.5% v/v BPS, read-out: MIC, Resazurin: +BPS
Procedure: (§1) Antibacterial susceptibility testing was measured by JMI Labs (North Liberty, Iowa, USA). […] These clinical isolates were collected from US (n=4), Mexico (n=2), and Italy (n=1). Susceptibility testing was performed by broth microdilution in accordance with the Clinical and Laboratory and Standards Institute (CLSI) guidelines M07-A10 (2015) and the standard operating procedures at JMI laboratories. Minimum inhibitory concentrations (MICS) were based on CLSI criteria (2015). There are no published breakpoints for iclaprim. E. coli, K. pneumoniae, M. catarrhalis, E. faecalis, and S. aureus were tested in cation-adjusted Mueller-Hinton broth (CA-MHB). S. pneumoniae were tested in CA-MHB supplemented with 2.5-5% lysed horse blood, and H. influenza were tested in Haemophilus test medium. Quality control and interpretation of results were performed in accordance with CLSI M100-S26 (2016) methods. QC ranges for iclaprim were those approved by CLSI and published in M100-S26 (2016). Iclaprim and comparator antibiotic MIC results were within the CLSI published ranges against E. coli ATCC 25922, E. faecalis ATCC 29212, E. faecalis ATCC 33186, H. influenzae ATCC 49247, K. pneumoniae ATCC 700603 (ESBL phenotype), S. aureus ATCC 29213, and S. pneumoniae ATCC 49619. Isolates were tested with MIC panels (ThermoFisher Scientific, Cleveland, Ohio, USA) of comparator antibiotics (daptomycin and levofloxacin).
(§2) Because bovine pulmonary surfactant can introduce cloudiness to the MIC testing media, antimicrobial growth inhibition was also evaluated using the colorimetric metabolic indicator resazurin (Camlab Ltd., Cambridge, UK). […] S. pneumoniae panels were omitted from resazurin analysis because the color change was obscured by the lysed horse blood present in the test medium. Growth inhibition was then evaluated as a visible color change from blue (no growth) to pink (robust growth) and recorded as a MIC1z value.
(§3) The MICs of iclaprim, levofloxacin, and daptomycin were determined against Gram-positive and Gram-negative isolates.
(§4) A new vial of bovine pulmonary surfactant (BPS; Survanta®; Abbott Laboratories, Columbus, Ohio) was utilized for each independent experiment. Each vial was mixed thoroughly and a 100 μL aliquot was spread on an agar plate, which was incubated overnight to confirm sterility. […] The concentration of surfactant was expressed in terms of percent volume of Survanta® suspension, which consisted of phospholipid (25 mg/mL) and surfactant proteins (<1 mg/mL) in 0.9% sodium chloride solution (Goerke, 1998). MICs of daptomycin were determined in CAMHB with the Ca^2+ content adjusted to 50 mg/L.

E. faecalis ATCC 29212 = test: MIC with/without bovine pulmonary surfactant; format: cell-based; details: Enterococcus faecalis, ATCC29212, 2.5% v/v BPS, read-out: MIC, Resazurin: +BPS
Procedure: as §1, §2, §3, §4

S. aureus ATCC 29213 = test: MIC with/without bovine pulmonary surfactant; format: cell-based; details: Staphylococcus aureus
Procedure: as §1, §2, §3, §4

[1] = test system: M. catarrhalis Clinical Isolate 893806; test: MIC with/without bovine pulmonary surfactant; format: cell-based; details: Moraxella catarrhalis, 2.5% v/v BPS, read-out: MIC, Resazurin: +BPS
Procedure: as §1, §2, §3, §4

[2] = test system: S. aureus Clinical Isolate 825189; test: MIC with/without bovine pulmonary surfactant; format: cell-based; details: Staphylococcus aureus
Procedure: as §1, §2, §3, §4

[3] = test system: M. catarrhalis Clinical Isolate 893807; test: MIC with/without bovine pulmonary surfactant; format: cell-based; details: Moraxella catarrhalis, 2.5% v/v BPS, read-out: MIC, Resazurin: +BPS
Procedure: as §1, §2, §3, §4

E. coli ATCC 25922 = test: MIC with/without bovine pulmonary surfactant; format: cell-based; details: Escherichia coli
Procedure: as §1, §2, §3, §4

S. aureus strain AH1252 = test: neutropenic rat lung infection model; format: in vivo, Staphylococcus aureus
Procedure: S. aureus strain AH1252, a thymidine knockout of the MRSA wild type AW6 strain, was utilized for this study. The bacterial strain was diluted in a 2% alginate buffer, which was added dropwise in a ratio of 1:5 into […] to form alginate beads. The alginate beads reduce the efficacy of bacterial clearance similar to that seen in the cystic fibrosis population. A 5.25×10^4 bacterial inoculum was administered to groups of 9 rats, intratracheally, with prepared alginate bacteria suspensions, under isoflurane anesthesia. […] Twelve hours after the last treatment, rats were euthanized and lungs collected for CFU determination.

[4] = test system: nosocomial pneumonia suspected or confirmed to be caused by Gram-positive pathogens; test: Phase 2 study in nosocomial pneumonia, iclaprim versus vancomycin; format: in vivo, human
Source text: This MIC effect of surfactant on daptomycin activity has been reported to be mediated by binding of surfactant components to specific structures present on antibiotics, such as the lipophilic side-chain of daptomycin (Silverman et al., 2005). […] Collectively, the current in vitro study and a previous Phase 2 study support that iclaprim could be a potential treatment for pneumonia, including nosocomial pneumonia caused by susceptible and multidrug resistant Gram-positive bacteria.

male and female rats = details: both, rat, in vivo, 4 weeks
Procedure: A repeated-dose, 4-week toxicity study was conducted in male and female rats, where single, daily IV bolus doses up to 60 mg/kg were given. […] A 28-day toxicity study was also conducted in male and female marmosets, where iclaprim mesylate was infused intravenously over a 20-minute interval.

[5] = pH value of a 1% solution in water; format: physicochemical
Source text: The molecular formulae for iclaprim and iclaprim mesylate are […] (base) and C20H26N4O6S (mesylate), and their relative molecular masses are 354.41 (base) or 450.52 (mesylate). […] One skilled in the art can readily obtain iclaprim or iclaprim mesylate, and synthesis of these compounds is described in U.S. Pat. No. 5,773,446, the entire disclosure of which is herein incorporated by reference.

female mini-pigs = details: minipig, in vivo
mouse = test: acute IV toxicity in the mouse (lowest lethal dose); format: in vivo
[6] = ATCC29213, 2.5% v/v BPS, read-out: MIC, Resazurin: +BPS
[7] = ATCC29213, no BPS, read-out: MIC, CLSI
[8] = ATCC29213, no BPS, read-out: MIC, Resazurin
[9] = 2.5% v/v BPS, read-out: MIC, Resazurin: +BPS
[10] = no BPS, read-out: MIC, Resazurin

## CCCCCCCCCC(=O)N[C@@H](Cc1c[nH]c2ccccc12)C(=O)N[C@H](CC(N)=O)C(=O)N[C@@H](CC(=O)O)C(=O)N[C@@H]1C(=O)NCC(=O)N[C@@H](CCCN)C(=O)N[C@@H](CC(=O)O)C(=O)N[C@H](C)C(=O)N[C@@H](CC(=O)O)C(=O)NCC(=O)N[C@H](CO)C(=O)N[C@@H]([C@H](C)CC(=O)O)C(=O)N[C@@H](CC(=O)c2ccccc2N)C(=O)O[C@@H]1C [daptomycin]
E. faecalis ATCC 33186
  MIC: > 16 µg/mL
E. faecalis ATCC 29212
  MIC: > 16 µg/mL
S. aureus ATCC 29213; [6]
  MIC: > 16 µg/mL
S. aureus ATCC 29213; [7]
  MIC: 0.5 µg/mL (≈ 0.309 µM)
S. aureus ATCC 29213; [8]
  MIC: 0.5 µg/mL (≈ 0.309 µM)
[1]
  MIC: > 16 µg/mL
[2]; [9]
  MIC: > 16 µg/mL
[2]; [10]
  MIC: 0.25 µg/mL (≈ 0.154 µM)
[3]
  MIC: > 16 µg/mL

## C[C@H]1COc2c(N3CCN(C)CC3)c(F)cc3c(=O)c(C(=O)O)cn1c23 [levofloxacin]
E. faecalis ATCC 33186
  MIC: 2 µg/mL (≈ 5.53 µM)
E. coli ATCC 25922; ATCC25922, 2.5% v/v BPS, read-out: MIC, CLSI: +BPS
  MIC: 0.03 µg/mL (≈ 0.083 µM)
E. coli ATCC 25922; ATCC25922, 2.5% v/v BPS, read-out: MIC, Resazurin: +BPS
  MIC: 0.03 µg/mL (≈ 0.083 µM)
E. coli ATCC 25922; ATCC25922, no BPS, read-out: MIC, CLSI
  MIC: 0.015 µg/mL (≈ 0.0415 µM)
E. coli ATCC 25922; ATCC25922, no BPS, read-out: MIC, Resazurin
  MIC: 0.015 µg/mL (≈ 0.0415 µM)
S. aureus ATCC 29213; ATCC29213, 2.5% v/v BPS, read-out: MIC, CLSI: +BPS
  MIC: 0.12 µg/mL (≈ 0.332 µM)
S. aureus ATCC 29213; [6]
  MIC: 0.12 µg/mL (≈ 0.332 µM)
S. aureus ATCC 29213; [7]
  MIC: 0.25 µg/mL (≈ 0.692 µM)
S. aureus ATCC 29213; [8]
  MIC: 0.25 µg/mL (≈ 0.692 µM)
[2]; 2.5% v/v BPS, read-out: MIC, CLSI: +BPS
  MIC: 0.25 µg/mL (≈ 0.692 µM)
[2]; [9]
  MIC: 0.25 µg/mL (≈ 0.692 µM)
[2]; no BPS, read-out: MIC, CLSI
  MIC: 0.25 µg/mL (≈ 0.692 µM)
[2]; [10]
  MIC: 0.25 µg/mL (≈ 0.692 µM)

## CN[C@H](CC(C)C)C(=O)N[C@H]1C(=O)N[C@@H](CC(N)=O)C(=O)N[C@H]2C(=O)N[C@H]3C(=O)N[C@H](C(=O)N[C@H](C(=O)O)c4cc(O)cc(O)c4-c4cc3ccc4O)[C@H](O)c3ccc(c(Cl)c3)Oc3cc2cc(c3O[C@@H]2O[C@H](CO)[C@@H](O)[C@H](O)[C@H]2O[C@H]2C[C@](C)(N)[C@H](O)[C@H](C)O2)Oc2ccc(cc2Cl)[C@H]1O [Vancomycin, vancomycin, reference compound]
S. aureus strain AH1252; 50 mg/kg SC/BID
  72 hour lungs log10CFU/Lung (CFU/gram of lung): 5.30
  Change in CFUs from 2 hr. infection controls: 2.18 log 10 CFU
  Change in CFUs from 72 hr. infection controls: −3.38 log 10 CFU
S. aureus strain AH1252; 50 mg/kg SC/BID (100 mg/kg/day) 3 days
  Survival >60 hrs: 8/9
S. aureus strain AH1252; vancomycin 50 mg/kg SC/BID
  CFU reduction from the 72 hour infection controls: 3.38 log 10 CFU
[4]; vancomycin 1 g IV q12h, test of cure visit (12 of 23)
  cure rate, intent-to-treat population: 52.2%
[4]; vancomycin (5 of 23)
  death rate within 28 days of the start of treatment: 21.7%

## COc1cc(Cc2cnc(N)nc2N)c2c(c1OC)OC(C1CC1)C=C2 (racemic) [iclaprim mesylate, 5-[(2RS)-2-cyclopropyl-7,8-dimethoxy-2Hchromen-5-ylmethyl] pyrimidine-2,4-diamine methanesulfonate]
Male and female rats
  HED of NOAEL: 3.9 mg/kg/day
  dosage with histopathological changes at the injection sites: ≥ 10 mg/kg/day
[5]
  pH value: 4.2
Female mini-pigs
  HED of maximum tolerated single IV dose: 14.6 mg/kg
  maximum tolerated single IV dose: 20 mg/kg
mouse
  HED of lowest lethal IV dose: 6.1 mg/kg
  lowest lethal IV dose: 75 mg/kg
